According to patent EP0237495A2, “Halogenides of the ester of 2,N,N,N-dimethyl-alkyl-amino-ethanol with substituted acetic acid and pharmaceutical compositions having antiinflammatory and antiseptic activities containing same” (Sigma-Tau Industrie Farmaceutiche Riunite S.p.A., priority 1986, dated 1987):

Columns and labels:
[1] = tested on: acetic acid-induced peritoneal exudation; test: Antiexudative activity (acetic acid-induced peritoneal exudation); assay type: in vivo; conditions: rat, 1 hour before i.p. 1% acetic acid
Experimental: The test was carried out in the rat. The products were orally administered 1 hour before the intraperitoneal injection of 0.5 ml of 1% acetic acid. Along with the irritant agent, 1 ml of 0,1% Blue Evans was injected i.v. to the rats. The same procedure as that described above was followed for collecting the peritoneal exudate and rating the irritation degree.

Staphylococcus aureus = assay type: cell-based; conditions: ATCC6538P; Staphylococcus aureus ATCC 6538P
[2] = tested on: Staphylococcus epidermidis; assay type: cell-based; conditions: Staphylococcus epidermidis BB 0223
Streptococcus faecalis = assay type: cell-based; conditions: Enterococcus faecalis, ATCC8043; Streptococcus faecalis ATCC 8043
Streptococcus pyogenes = assay type: cell-based; conditions: ATCC12380; Streptococcus pyogenes ATCC 12380
Bacillus subtilis = assay type: cell-based; conditions: ATCC6633; Bacillus subtilis ATCC 6633
Sarcina lutea = assay type: cell-based; conditions: Micrococcus luteus, ATCC9341; Sarcina lutea ATCC 9341
Bacillus antracis = assay type: cell-based
Escherichia coli = assay type: cell-based; conditions: Escherichia coli K 12
Klebsiella pneumoniae = assay type: cell-based; conditions: ATCC10031; Klebsiella pneumoniae ATCC 10031
Proteus vulgaris = assay type: cell-based; conditions: ATCC6897; Proteus vulgaris ATCC 6897
Pseudomonas aeruginosa = assay type: cell-based; conditions: ATCC14502; Pseudomonas aeruginosa ATCC 14502
[3] = tested on: Bordetella bronchiseptica; assay type: cell-based; conditions: ATCC4617; Bordetella bronchiseptica ATCC 4617
Pseudomonas maltophilia = assay type: cell-based; conditions: Stenotrophomonas maltophilia, ATCC13637; Pseudomonas maltophilia ATCC 13637
Candida albicans = assay type: cell-based; conditions: ATCC10231; Candida albicans ATCC 10231
Candida utilis = assay type: cell-based; conditions: Williopsis jadinii; Candida utilis BB 0173
Rhodotorula rubra = assay type: cell-based; conditions: Rhodotorula rubra ISM 7198
Cryptococcus neoformans = assay type: cell-based; conditions: Cryptococcus neoformans ISM 7182
Saccharomyces cerevisiae = assay type: cell-based; conditions: Saccharomyces cerevisiae BB 0193
Aspergillus niger = assay type: cell-based; conditions: ATCC9642; Aspergillus niger ATCC 9642
Penicillium funicolosum = assay type: cell-based; conditions: ATCC9644; Penicillium funicolosum ATCC 9644
rat subcutaneous tissue = test: Topical tolerability in rat subcutaneous tissue; assay type: in vivo; design: key: 0: no response; 1: moderate response; 2: sharp response; 3: marked response; 4: extreme response; conditions: 1 ml of 1% suspension s.c., arbitrary scale 0-4; for Irritation degree 4h: 4 hours after administration; for Irritation degree 24h: 24 hours after administration
Experimental: The test was carried out on rats using two different test procedures. The products were tested at 1% concentration. According to the first procedure, 1 ml of the test suspensions were injected subcutaneously (s.c.) in the side of animals. 4 or 24 hours following administration, the animals were sacrificed, and the degree of subcutaneous irriration estimated.
The presence of erythema, oedema and necrosis was assessed based on the following arbitrary rating scale • - 0 : no response • - 1 : moderate response • - 2 : sharp response • - 3 : marked response • - 4 : extreme response

in vivo = conditions: mouse, ip
Experimental: (§1) The test was carried out in the mouse. The products were administered by intraperitoneal injection. The death rate was assessed daily over a period of 14 days following treatment.

mouse = test: in vivo; conditions: ip
Experimental: as §1

rat peritoneum = conditions: in vivo, ip

Question: For `CC(C)Cc1ccc(C(C)C(=O)O)cc1` (stereo not drawn) [ibuprofen, Ibuprofen, reference compound], which “% Inhibition with respect to controls” value ([1]; 200 mg/kg orally) is on record?
Answer: The value was 60%.

Question: And the “% Inhibition with respect to controls” value ([1]; 400 mg/kg orally)?
Answer: The value was 58%.

Question: Which MIC (Staphylococcus aureus) does the source give for `N=C(NCCCCCCNC(=N)NC(=N)Nc1ccc(Cl)cc1)NC(=N)Nc1ccc(Cl)cc1` [Chlorexidine, Chlorexidine gluconate, reference compound] here?
Answer: The MIC was at most 5 µg/mL.

Question: And the MIC [2]?
Answer: The MIC was 10 µg/mL.

Question: And the MIC (Streptococcus faecalis)?
Answer: The MIC was 20 µg/mL.

Question: What about the MIC (Streptococcus pyogenes) of the same compound?
Answer: Its MIC is 10 µg/mL.

Question: And the MIC (Bacillus subtilis)?
Answer: The MIC was at most 5 µg/mL.

Question: And the MIC (Sarcina lutea)?
Answer: Its MIC is 20 µg/mL.

Question: And the MIC (Bacillus antracis)?
Answer: Its MIC is 20 µg/mL.

Question: What about the MIC (Escherichia coli) of the same compound?
Answer: Its MIC is 10 µg/mL.

Question: What about the MIC (Klebsiella pneumoniae) of the same compound?
Answer: The MIC was 40 µg/mL.

Question: And the MIC (Proteus vulgaris)?
Answer: The MIC was 40 µg/mL.

Question: What about the MIC (Pseudomonas aeruginosa) of the same compound?
Answer: The MIC was 80 µg/mL.

Question: What about the MIC [3] of the same compound?
Answer: Its MIC is 40 µg/mL.

Question: What about the MIC (Pseudomonas maltophilia) of the same compound?
Answer: The MIC was 80 µg/mL.

Question: And the MIC (Candida albicans)?
Answer: The MIC was 20 µg/mL.

Question: What about the MIC (Candida utilis) of the same compound?
Answer: The MIC was 40 µg/mL.

Question: What about the MIC (Rhodotorula rubra) of the same compound?
Answer: The MIC was 40 µg/mL.

Question: And the MIC (Cryptococcus neoformans)?
Answer: Its MIC is 40 µg/mL.

Question: And the MIC (Saccharomyces cerevisiae)?
Answer: Its MIC is 80 µg/mL.

Question: What about the MIC (Aspergillus niger) of the same compound?
Answer: Its MIC is 80 µg/mL.

Question: What about the MIC (Penicillium funicolosum) of the same compound?
Answer: The MIC was over 80 µg/mL.

Question: Which “Irritation degree 4h” value (rat subcutaneous tissue) does the source give for `CCCCCCCCCC[N+](C)(C)CCOC(=O)Cc1c(C)n(C(=O)c2ccc(Cl)cc2)c2ccc(OC)cc12` [RE 8, iodide of the ester of 2-N,N,N-dimethyl-decyl --amino-ethanol with 1-(p-chlorobenzoyl)-2-methyl-5-methoxy-3-indolyl-acetic acid] here?
Answer: Its value is 2.

Question: And the “Irritation degree 24h” value (rat subcutaneous tissue)?
Answer: Its value is 2.

Question: What about the “% Inhibition with respect to controls” value ([1]; 200 mg/kg orally) of the same compound?
Answer: The value was 31%.

Question: What about the “% Inhibition with respect to controls” value ([1]; 400 mg/kg orally) of the same compound?
Answer: Its value is 46%.

Question: What about the mortality at 336 h (in vivo; 7.8 mg/kg) of the same compound?
Answer: Its mortality at 336 h is 0%.

Question: What about the mortality at 336 h (in vivo; 15.6 mg/kg) of the same compound?
Answer: Its mortality at 336 h is 0%.

Question: And the mortality at 336 h (in vivo; 31.2 mg/kg)?
Answer: Its mortality at 336 h is 100%.

Question: And the mortality at 336 h (in vivo; 62.5 mg/kg)?
Answer: Its mortality at 336 h is 100%.

Question: And the mortality at 336 h (in vivo; 125 mg/kg)?
Answer: Its mortality at 336 h is 83.3%.

Question: And the mortality at 336 h (in vivo; 250 mg/kg)?
Answer: The mortality at 336 h was 100%.

Question: What about the Mortality (mouse; 7.8 mg/kg) of the same compound?
Answer: The Mortality was 0/6.

Question: And the Mortality (mouse; 31.2 mg/kg)?
Answer: The Mortality was 6/6.

Question: What about the Mortality (mouse; 62.5 mg/kg) of the same compound?
Answer: The Mortality was 6/6.

Question: What about the Mortality (mouse; 125 mg/kg) of the same compound?
Answer: Its Mortality is 5/6.

Question: And the Mortality (mouse; 250 mg/kg)?
Answer: Its Mortality is 6/6.

Question: And the MIC (Staphylococcus aureus)?
Answer: Its MIC is at most 5 µg/mL.

Question: And the MIC [2]?
Answer: Its MIC is at most 5 µg/mL.

Question: And the MIC (Streptococcus faecalis)?
Answer: Its MIC is 10 µg/mL.

Question: And the MIC (Streptococcus pyogenes)?
Answer: The MIC was 10 µg/mL.

Question: And the MIC (Bacillus subtilis)?
Answer: Its MIC is 10 µg/mL.

Question: And the MIC (Sarcina lutea)?
Answer: The MIC was 10 µg/mL.

Question: What about the MIC (Bacillus antracis) of the same compound?
Answer: Its MIC is 10 µg/mL.

Question: And the MIC (Escherichia coli)?
Answer: Its MIC is over 80 µg/mL.

Question: What about the MIC (Klebsiella pneumoniae) of the same compound?
Answer: The MIC was over 80 µg/mL.

Question: And the MIC (Proteus vulgaris)?
Answer: Its MIC is 80 µg/mL.

Question: What about the MIC (Pseudomonas aeruginosa) of the same compound?
Answer: The MIC was 80 µg/mL.

Question: What about the MIC [3] of the same compound?
Answer: Its MIC is 80 µg/mL.

Question: And the MIC (Pseudomonas maltophilia)?
Answer: Its MIC is 80 µg/mL.

Question: What about the MIC (Candida albicans) of the same compound?
Answer: Its MIC is at most 5 µg/mL.

Question: And the MIC (Candida utilis)?
Answer: The MIC was at most 5 µg/mL.

Question: And the MIC (Rhodotorula rubra)?
Answer: Its MIC is at most 5 µg/mL.

Question: What about the MIC (Cryptococcus neoformans) of the same compound?
Answer: The MIC was at most 5 µg/mL.

Question: What about the MIC (Saccharomyces cerevisiae) of the same compound?
Answer: Its MIC is at most 5 µg/mL.

Question: What about the MIC (Aspergillus niger) of the same compound?
Answer: The MIC was at most 5 µg/mL.

Question: What about the MIC (Penicillium funicolosum) of the same compound?
Answer: Its MIC is at most 5 µg/mL.

Question: And the “Percent increase in response with respect to controls” value (rat peritoneum)?
Answer: The value was 97%.

Question: What does the source list for `CCCCCCCCCCCC[N+](C)(C)CCOC(=O)Cc1c(C)n(C(=O)c2ccc(Cl)cc2)c2ccc(OC)cc12` [RE 9, iodide of the ester of 2-N,N,N-dimethyl-dodecyl, amino-ethanol with 1-(p-chlorobenzoyl)-2-methyl-5-methoxy-3-indolyl-acetic acid]?
Answer: Irritation degree 4h (rat subcutaneous tissue): 2; Irritation degree 24h (rat subcutaneous tissue): 2; % Inhibition with respect to controls ([1]; 200 mg/kg orally): 35%; % Inhibition with respect to controls ([1]; 400 mg/kg orally): 40%; mortality at 336 h (in vivo; 31.2 mg/kg): 0%; mortality at 336 h (in vivo; 62.5 mg/kg): 83.3%; mortality at 336 h (in vivo; 125 mg/kg): 100%; mortality at 336 h (in vivo; 250 mg/kg): 83.3%; mortality at 336 h (in vivo; 500 mg/kg): 100%; Mortality (mouse; 62.5 mg/kg): 5/6; Mortality (mouse; 125 mg/kg): 6/6; Mortality (mouse; 250 mg/kg): 5/6; Mortality (mouse; 500 mg/kg): 6/6; MIC (Staphylococcus aureus): ≤ 5 µg/mL; MIC [2]: ≤ 5 µg/mL; MIC (Streptococcus faecalis): ≤ 5 µg/mL; MIC (Streptococcus pyogenes): ≤ 5 µg/mL; MIC (Bacillus subtilis): ≤ 5 µg/mL; MIC (Sarcina lutea): ≤ 5 µg/mL; MIC (Bacillus antracis): ≤ 5 µg/mL; MIC (Escherichia coli): 80 µg/mL; MIC (Klebsiella pneumoniae): 80 µg/mL; MIC (Proteus vulgaris): 20 µg/mL; MIC (Pseudomonas aeruginosa): 80 µg/mL; MIC [3]: 80 µg/mL; MIC (Pseudomonas maltophilia): 80 µg/mL; MIC (Candida albicans): ≤ 5 µg/mL; MIC (Candida utilis): ≤ 5 µg/mL; MIC (Rhodotorula rubra): ≤ 5 µg/mL; MIC (Cryptococcus neoformans): ≤ 5 µg/mL; MIC (Saccharomyces cerevisiae): ≤ 5 µg/mL; MIC (Aspergillus niger): ≤ 5 µg/mL; MIC (Penicillium funicolosum): ≤ 5 µg/mL; Percent increase in response with respect to controls (rat peritoneum): 95%

Question: Which results are given for `CCCCCCCC[N+](C)(C)CCOC(=O)C(C)c1ccc(CC(C)C)cc1` (stereo not drawn) [AF 150, bromide of the ester of 2-N,N,N-dimethyl-octyl-amino-ethanol with p-isobutylphenyl-alpha-methylacetic acid]?
Answer: Irritation degree 4h (rat subcutaneous tissue): 2; Irritation degree 24h (rat subcutaneous tissue): 1; % Inhibition with respect to controls ([1]; 200 mg/kg orally): 37%; % Inhibition with respect to controls ([1]; 400 mg/kg orally): 51%; mortality at 336 h (in vivo; 7.8 mg/kg): 0%; mortality at 336 h (in vivo; 15.6 mg/kg): 0%; mortality at 336 h (in vivo; 31.2 mg/kg): 100%; mortality at 336 h (in vivo; 62.5 mg/kg): 100%; mortality at 336 h (in vivo; 125 mg/kg): 83.3%; Mortality (mouse; 7.8 mg/kg): 0/6; Mortality (mouse; 31.2 mg/kg): 6/6; Mortality (mouse; 62.5 mg/kg): 6/6; Mortality (mouse; 125 mg/kg): 5/6; MIC (Staphylococcus aureus): ≤ 5 µg/mL; MIC [2]: 10 µg/mL; MIC (Streptococcus faecalis): 20 µg/mL; MIC (Streptococcus pyogenes): 20 µg/mL; MIC (Bacillus subtilis): 10 µg/mL; MIC (Sarcina lutea): ≤ 5 µg/mL; MIC (Bacillus antracis): 10 µg/mL; MIC (Escherichia coli): 80 µg/mL; MIC (Klebsiella pneumoniae): 10 µg/mL; MIC (Proteus vulgaris): 10 µg/mL; MIC (Pseudomonas aeruginosa): 10 µg/mL; MIC [3]: 10 µg/mL; MIC (Pseudomonas maltophilia): 40 µg/mL; MIC (Candida albicans): ≤ 5 µg/mL; MIC (Candida utilis): ≤ 5 µg/mL; MIC (Rhodotorula rubra): ≤ 5 µg/mL; MIC (Cryptococcus neoformans): ≤ 5 µg/mL; MIC (Saccharomyces cerevisiae): ≤ 5 µg/mL; MIC (Aspergillus niger): 10 µg/mL; MIC (Penicillium funicolosum): 10 µg/mL; Percent increase in response with respect to controls (rat peritoneum): 185%
